Laboratory results as given in US20150031702A1, “PI3K INHIBITORS FOR TREATING COUGH” (GlaxoSmithkline Intellectual Property (No.2) Limited, priority 2012, published 2015).

Test system: dissociated dorsal ganglion sensory neurons
Assay: Sensitization assay: capsaicin-induced Calcium Imaging response after sensitizing cocktail
Assay type: cell-based, mouse
Settings: co-incubation with various doses of compound (0.002-1000 nM); sensitizing cocktail NGF, GDNF, PGE2, 1β; 3rd capsaicin-induced peak, Fura-2 f340/f380; FIG. 1
Description: Capsaicin, the active ingredient in pepper sprays, is an irritant that causes noxious respiratory sensations and reflexes including sneezing and coughing in humans. Capsaicin binds to Transient Receptor Potential Vanilloid 1 (TRPV1), whose expression is enriched in both somatic and visceral nociceptors. Exaggerated response to inhaled capsaicin can be seen in subjects with IPF or with cough hypersensitivity syndrome and can be used as a test. Increased reactivity to capsaicin is generally considered a marker of sensitization of nociceptors. Capsaicin effects in sensory neurons dissected from mouse peripheral ganglia can be used as a model to identify nociceptors and to study the sensitization mechanisms in vitro. Response to capsaicin can be quantified in a relatively large population of dissociated sensory neurons using the method of Calcium Imaging. […]
Each point represents how well the capsaicin-induced peak is reduced by the drug when compared with negative control (1, no sensitizing solution, no GSK-1) and positive control (0, sensitizing solution, no GSK-1). Calculated, it is:
Where C=the average relative f340/f380 value of peak 3 for the sensitization control (sensitizing solution, no GSK-1). X=the individual relative f340/f380 value to be calculated, and N=the average relative f340/f380 value of peak 3 for the negative control (no sensitization solution, no GSK-1).

COc1ncc(-c2ccc3ncnc(N4CCOCC4)c3c2)cc1NS(=O)(=O)c1ccc(F)cc1F [GSK-1, 2,4-difluoro-N-{2-(methyloxy)-5-[4-(4-morpholinyl)-6-quinazolinyl]-3-pyridinyl}benzenesulfonamide]
Effect on enhancement of the Calcium Imaging response to capsaicin by the sensitizing cocktail: dose-dependently abolished
